Results from patent USH1923H, “Herbicidal (oxaalkyl) phenyl-substituted heterocycles” (FMC Corporation, priority 1998, dated 2000).

What was measured:
morningglory [1] = assay: preemergence herbicidal activity on morningglory; assay type: in vivo, Ipomea lacunosa or Ipomea hederacea; settings: Ipomoea, pre-emergence, 0.3 Kg/Ha, after 12-17 days, read-out: PREEMERGENCE HERBICIDAL ACTIVITY (% CONTROL) IPOSS
Protocol: (§1) The (oxaalkyl)phenyl-substituted heterocycles of this invention were tested for pre- and postemergence herbicidal activity using a variety of crops and weeds. The test plants included soybean (Glycine max var. Winchester),field corn (Zea mays var. Pioneer 3732), wheat (Triticum aestivum var. Lew), morningglory (Ipomea lacunosa or Ipomea hederacea), […] (Abutilon theophrasti), green foxtail (Setaria viridis), Johnsongrass (Sorghum halepense), blackgrass (Aloepecurus myosuroides), common chickweed (Stellaria media), and common cocklebur (Xanthium strumarium L.).
(§2) For preemergence testing, two disposable fiber flats (8 cm×15 cm×25 cm) for each rate of application of each candidate herbicide were filled to an approximate depth of 6.5 cm with steam-sterilized sandy loam soil. The soil was leveled and impressed with a template to provide five evenly spaced furrows 13 cm long and 0.5 cm deep in each flat. Seeds of soybean, wheat, corn, green foxtail, and johnsongrass were planted in the furrows of the first flat, and seeds of velvetleaf, morningglory, common chickweed, cocklebur, and blackgrass were planted in the furrows of the second flat. The five-row template was employed to firmly press the seeds into place. A topping soil of equal portions of sand and sandy loam soil was placed uniformly on top of each flat to a depth of approximately 0.5 cm. Flats for postemergence testing were prepared in the same manner except that they were planted 9-14 days prior to the preemergence flats and were placed in a greenhouse and watered, thus allowing the seeds to germinate and the foliage to develop.
(§3) In both pre- and postemergence tests, a stock solution of the candidate herbicide was prepared by dissolving 0.27 g of the compound in 20 mL of water/acetone (50/50) containing 0.5% v/v sorbitan monolaurate. For an application rate of 3000 g/ha of herbicide a 10 mL portion of the stock solution was diluted with water/acetone (50/50) to 45 mL.
(§4) The preemergence flats were initially subjected to a light water spray. The four flats were placed two by two along a conveyor belt (i.e., the two preemergence followed by the two postemergence flats). The conveyor belt fed under a spray nozzle mounted about ten inches above the postemergent foliage. The preemergent flats were elevated on the belt so that the soil surface was at the same level below the spray nozzle as the foliage canopy of the postemergent plants. The spray of herbicidal solution was commenced and once stabilized, the flats were passed under the spray at a speed to receive a coverage equivalent of 1000 L/ha. At this coverage the application rates are those shown in the above table for the individual herbicidal solutions. The preemergence flats were watered immediately thereafter, placed in the greenhouse and watered regularly at the soil surface. The postemergence flats were immediately placed in the green-house and not watered until 24 hours after treatment with the test solution. Thereafter they were regularly watered at ground level. After 12-17 days the plants were examined and the phytotoxicity data were recorded.
(§5) Phytotoxicity data were taken as percent control. Percent control was by a method similar to the 0 to 1 00 rating system disclosed in "Research Methods in Weed Science," 2nd ed., B. Truelove, Ed.; Southern Weed Science Society; Auburn University, Auburn, Ala., 1977.

johnsongrass [2] = assay: postemergence herbicidal activity on johnsongrass; assay type: in vivo; settings: Sorghum halepense, post-emergence, 0.3 Kg/Ha, after 12-17 days, read-out: POSTEMERGENCE HERBICIDAL ACTIVITY (% CONTROL) SORHA
Protocol: as §1, §2, §3, §4, §5

corn [3] = assay: postemergence herbicidal activity on corn; assay type: in vivo, Zea mays var. Pioneer 3732; settings: Zea mays, post-emergence, 0.3 Kg/Ha, after 12-17 days, read-out: POSTEMERGENCE HERBICIDAL ACTIVITY (% CONTROL) CRN
Protocol: as §1, §2, §3, §4, §5

blackgrass [4] = assay: preemergence herbicidal activity on blackgrass; assay type: in vivo, Aloepecurus myosuroides; settings: Alopecurus myosuroides, pre-emergence, 0.3 Kg/Ha, after 12-17 days, read-out: PREEMERGENCE HERBICIDAL ACTIVITY (% CONTROL) ALOMY
Protocol: as §1, §2, §3, §4, §5

corn [5] = assay: preemergence herbicidal activity on corn; assay type: in vivo, Zea mays var. Pioneer 3732; settings: Zea mays, pre-emergence, 0.3 Kg/Ha, after 12-17 days, read-out: PREEMERGENCE HERBICIDAL ACTIVITY (% CONTROL) CRN
Protocol: as §1, §2, §3, §4, §5

velvetleaf [6] = assay: postemergence herbicidal activity on velvetleaf; assay type: in vivo; settings: Abutilon theophrasti, post-emergence, 0.3 Kg/Ha, after 12-17 days, read-out: POSTEMERGENCE HERBICIDAL ACTIVITY (% CONTROL) ABUTH
Protocol: as §1, §2, §3, §4, §5

soybean [7] = assay: preemergence herbicidal activity on soybean; assay type: in vivo, Glycine max var. Winchester; settings: Glycine max, pre-emergence, 0.3 Kg/Ha, after 12-17 days, read-out: PREEMERGENCE HERBICIDAL ACTIVITY (% CONTROL) SOY
Protocol: as §1, §2, §3, §4, §5

wheat [8] = assay: postemergence herbicidal activity on wheat; assay type: in vivo, Triticum aestivum var. Lew; settings: Triticum aestivum, post-emergence, 0.3 Kg/Ha, after 12-17 days, read-out: POSTEMERGENCE HERBICIDAL ACTIVITY (% CONTROL) WHT
Protocol: as §1, §2, §3, §4, §5

green foxtail [9] = assay: preemergence herbicidal activity on green foxtail; assay type: in vivo; settings: Setaria viridis, pre-emergence, 0.3 Kg/Ha, after 12-17 days, read-out: PREEMERGENCE HERBICIDAL ACTIVITY (% CONTROL) SETVI
Protocol: as §1, §2, §3, §4, §5

chickweed [10] = assay: postemergence herbicidal activity on chickweed; assay type: in vivo; settings: Stellaria media, post-emergence, 0.3 Kg/Ha, after 12-17 days, read-out: POSTEMERGENCE HERBICIDAL ACTIVITY (% CONTROL) STEME
Protocol: as §1, §2, §3, §4, §5

morningglory [11] = assay: postemergence herbicidal activity on morningglory; assay type: in vivo, Ipomea lacunosa or Ipomea hederacea; settings: Ipomoea, post-emergence, 0.3 Kg/Ha, after 12-17 days, read-out: POSTEMERGENCE HERBICIDAL ACTIVITY (% CONTROL) IPOSS
Protocol: as §1, §2, §3, §4, §5

wheat [12] = assay: preemergence herbicidal activity on wheat; assay type: in vivo, Triticum aestivum var. Lew; settings: Triticum aestivum, pre-emergence, 0.3 Kg/Ha, after 12-17 days, read-out: PREEMERGENCE HERBICIDAL ACTIVITY (% CONTROL) WHT
Protocol: as §1, §2, §3, §4, §5

soybean [13] = assay: postemergence herbicidal activity on soybean; assay type: in vivo, Glycine max var. Winchester; settings: Glycine max, post-emergence, 0.3 Kg/Ha, after 12-17 days, read-out: POSTEMERGENCE HERBICIDAL ACTIVITY (% CONTROL) SOY
Protocol: as §1, §2, §3, §4, §5

cocklebur [14] = assay: postemergence herbicidal activity on cocklebur; assay type: in vivo, Xanthium strumarium L.; settings: Xanthium strumarium, post-emergence, 0.3 Kg/Ha, after 12-17 days, read-out: POSTEMERGENCE HERBICIDAL ACTIVITY (% CONTROL) XANPE
Protocol: as §1, §2, §3, §4, §5

cocklebur [15] = assay: preemergence herbicidal activity on cocklebur; assay type: in vivo, Xanthium strumarium L.; settings: Xanthium strumarium, pre-emergence, 0.3 Kg/Ha, after 12-17 days, read-out: PREEMERGENCE HERBICIDAL ACTIVITY (% CONTROL) XANPE
Protocol: as §1, §2, §3, §4, §5

chickweed [16] = assay: preemergence herbicidal activity on chickweed; assay type: in vivo; settings: Stellaria media, pre-emergence, 0.3 Kg/Ha, after 12-17 days, read-out: PREEMERGENCE HERBICIDAL ACTIVITY (% CONTROL) STEME
Protocol: as §1, §2, §3, §4, §5

velvetleaf [17] = assay: preemergence herbicidal activity on velvetleaf; assay type: in vivo; settings: Abutilon theophrasti, pre-emergence, 0.3 Kg/Ha, after 12-17 days, read-out: PREEMERGENCE HERBICIDAL ACTIVITY (% CONTROL) ABUTH
Protocol: as §1, §2, §3, §4, §5

green foxtail [18] = assay: postemergence herbicidal activity on green foxtail; assay type: in vivo; settings: Setaria viridis, post-emergence, 0.3 Kg/Ha, after 12-17 days, read-out: POSTEMERGENCE HERBICIDAL ACTIVITY (% CONTROL) SETVI
Protocol: as §1, §2, §3, §4, §5

johnsongrass [19] = assay: preemergence herbicidal activity on johnsongrass; assay type: in vivo; settings: Sorghum halepense, pre-emergence, 0.3 Kg/Ha, after 12-17 days, read-out: PREEMERGENCE HERBICIDAL ACTIVITY (% CONTROL) SORHA
Protocol: as §1, §2, §3, §4, §5

blackgrass [20] = assay: postemergence herbicidal activity on blackgrass; assay type: in vivo, Aloepecurus myosuroides; settings: Alopecurus myosuroides, post-emergence, 0.3 Kg/Ha, after 12-17 days, read-out: POSTEMERGENCE HERBICIDAL ACTIVITY (% CONTROL) ALOMY
Protocol: as §1, §2, §3, §4, §5

## Cc1nn(-c2cc(CC(Cl)C(C)(C)O)c(Cl)cc2F)c(=O)n1C(F)F (centres unmarked) [Compound 2]
Morningglory [1]
  activity at 300 g/ha: 100%
Johnsongrass [2]
  activity at 300 g/ha: 80%
Corn [3]
  activity at 300 g/ha: 80%
Blackgrass [4]
  activity at 300 g/ha: 70%
Corn [5]
  activity at 300 g/ha: 80%
Velvetleaf [6]
  activity at 300 g/ha: 100%
Soybean [7]
  activity at 300 g/ha: 60%
Wheat [8]
  activity at 300 g/ha: 60%
Green foxtail [9]
  activity at 300 g/ha: 100%
Chickweed [10]
  activity at 300 g/ha: 70%
Morningglory [11]
  activity at 300 g/ha: 100%
Wheat [12]
  activity at 300 g/ha: 70%
Soybean [13]
  activity at 300 g/ha: 80%
Cocklebur [14]
  activity at 300 g/ha: 55%
Cocklebur [15]
  activity at 300 g/ha: 60%
Chickweed [16]
  activity at 300 g/ha: 90%
Velvetleaf [17]
  activity at 300 g/ha: 100%
Green foxtail [18]
  activity at 300 g/ha: 80%
Johnsongrass [19]
  activity at 300 g/ha: 90%
Blackgrass [20]
  activity at 300 g/ha: 70%
